Where two headings read alike, the source gives them in different places.
Experiments:
Experiment in all cases: Test E pre-/postemergence plant response
Type in all cases: in vivo
[1] = tested on: pigweed (Amaranthus retroflexus); settings: scale 0 to 100, read-out: Plant response rating, Pigweed; for pest or weed control at 16 g/ha: 16 g ai/ha; for pest or weed control at 31 g/ha: 31 g ai/ha; for pest or weed control at 62 g/ha: 62 g ai/ha; for pest or weed control at 125 g/ha: 125 g ai/ha
How it was run: (§1)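 Visual scores on a 0–100 scale (100 = complete control) were assigned against untreated controls 7–21 days after treatment in a controlled environment. Compounds, formulated with solvent plus surfactant, were applied to pre-emergence silt-loam sowings or to 1- to 4-leaf plants (2–18 cm) in potting medium.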

[2] = tested on: winter wheat (Triticum aestivum); settings: post-emergence, Postemergence, scale 0 to 100, read-out: Plant response rating, Wheat, Winter
How it was run: as §1

[3] = tested on: blackgrass (Alopecurus myosuroides); settings: scale 0 to 100, read-out: Plant response rating, Blackgrass; for pest or weed control at 16 g/ha: 16 g ai/ha; for pest or weed control at 31 g/ha: 31 g ai/ha; for pest or weed control at 62 g/ha: 62 g ai/ha; for pest or weed control at 125 g/ha: 125 g ai/ha
How it was run: as §1

[4] = tested on: spring barley (Hordeum vulgare); settings: post-emergence, Postemergence
How it was run: as §1

kochia (Kochia scoparia) = settings: Bassia scoparia, scale 0 to 100, read-out: Plant response rating, Kochia; for pest or weed control at 16 g/ha: 16 g ai/ha; for pest or weed control at 31 g/ha: 31 g ai/ha; for pest or weed control at 62 g/ha: 62 g ai/ha; for pest or weed control at 125 g/ha: 125 g ai/ha
How it was run: as §1

[5] = tested on: wild mustard (Sinapis arvensis); settings: Brassica, scale 0 to 100, read-out: Plant response rating, Mustard, Wild; for pest or weed control at 16 g/ha: 16 g ai/ha; for pest or weed control at 31 g/ha: 31 g ai/ha; for pest or weed control at 62 g/ha: 62 g ai/ha; for pest or weed control at 125 g/ha: 125 g ai/ha
How it was run: as §1

[6] = tested on: bluegrass (annual bluegrass, Poa annua); settings: scale 0 to 100, read-out: Plant response rating, Bluegrass; for pest or weed control at 16 g/ha: 16 g ai/ha; for pest or weed control at 31 g/ha: 31 g ai/ha; for pest or weed control at 62 g/ha: 62 g ai/ha; for pest or weed control at 125 g/ha: 125 g ai/ha
How it was run: as §1

[7] = tested on: Italian ryegrass (Lolium multiflorum); settings: scale 0 to 100, read-out: Plant response rating, Ryegrass, Italian; for pest or weed control at 16 g/ha: 16 g ai/ha; for pest or weed control at 31 g/ha: 31 g ai/ha; for pest or weed control at 62 g/ha: 62 g ai/ha; for pest or weed control at 125 g/ha: 125 g ai/ha
How it was run: as §1

[8] = tested on: wild radish (Raphanus raphanistrum); settings: scale 0 to 100, read-out: Plant response rating, Radish, Wild; for pest or weed control at 16 g/ha: 16 g ai/ha; for pest or weed control at 31 g/ha: 31 g ai/ha; for pest or weed control at 62 g/ha: 62 g ai/ha; for pest or weed control at 125 g/ha: 125 g ai/ha
How it was run: as §1

[9] = tested on: speedwell (bird's-eye speedwell, Veronica persica); settings: scale 0 to 100, read-out: Plant response rating, Speedwell; for pest or weed control at 16 g/ha: 16 g ai/ha; for pest or weed control at 62 g/ha: 62 g ai/ha; for pest or weed control at 125 g/ha: 125 g ai/ha
How it was run: as §1

[10] = tested on: lambsquarters (Chenopodium album); settings: scale 0 to 100, read-out: Plant response rating, Lambsquarters; for pest or weed control at 16 g/ha: 16 g ai/ha; for pest or weed control at 31 g/ha: 31 g ai/ha; for pest or weed control at 62 g/ha: 62 g ai/ha; for pest or weed control at 125 g/ha: 125 g ai/ha
How it was run: as §1

FC(F)c1cc(-c2ccccc2Oc2ncc(Cl)cn2)no1 [Compound 35, 5-chloro-2-[2-[5-(difluoromethyl)-3-isoxazolyl]phenoxy]pyrimidine]
90%: pest or weed control at 31 g/ha ([1]; post-emergence, Postemergence) | pest or weed control at 62 g/ha ([1]; post-emergence, Postemergence) | pest or weed control at 125 g/ha ([1]; post-emergence, Postemergence) | pest or weed control at 16 g/ha ([1]; pre-emergence, Preemergence) | pest or weed control at 125 g/ha (kochia (Kochia scoparia); post-emergence, Postemergence) | pest or weed control at 16 g/ha ([5]; post-emergence, Postemergence) | pest or weed control at 125 g/ha ([10]; post-emergence, Postemergence) | pest or weed control at 62 g/ha ([10]; pre-emergence, Preemergence)
100%: pest or weed control at 62 g/ha ([1]; pre-emergence, Preemergence) | pest or weed control at 125 g/ha ([1]; pre-emergence, Preemergence) | pest or weed control at 62 g/ha (kochia (Kochia scoparia); pre-emergence, Preemergence) | pest or weed control at 125 g/ha (kochia (Kochia scoparia); pre-emergence, Preemergence) | pest or weed control at 125 g/ha ([5]; post-emergence, Postemergence) | pest or weed control at 16 g/ha ([8]; pre-emergence, Preemergence) | pest or weed control at 62 g/ha ([8]; pre-emergence, Preemergence) | pest or weed control at 125 g/ha ([8]; pre-emergence, Preemergence) | pest or weed control at 31 g/ha ([9]; post-emergence, 31 g ai/ha, Postemergence) | pest or weed control at 62 g/ha ([9]; post-emergence, Postemergence) | pest or weed control at 125 g/ha ([9]; post-emergence, Postemergence) | pest or weed control at 16 g/ha ([9]; pre-emergence, Preemergence) | pest or weed control at 62 g/ha ([9]; pre-emergence, Preemergence) | pest or weed control at 125 g/ha ([9]; pre-emergence, Preemergence) | pest or weed control at 125 g/ha ([10]; pre-emergence, Preemergence)
5%: plant injury at 16 g/ha ([2]; 16 g ai/ha) | plant injury at 16 g/ha ([4]; 16 g ai/ha, scale 0 to 100, read-out: Plant response rating, Barley, Spring) | plant injury at 31 g/ha ([4]; 31 g ai/ha, scale 0 to 100, read-out: Plant response rating, Barley, Spring) | pest or weed control at 31 g/ha ([7]; post-emergence, Postemergence)
15%: plant injury at 31 g/ha ([2]; 31 g ai/ha) | pest or weed control at 16 g/ha ([6]; post-emergence, Postemergence)
55%: pest or weed control at 62 g/ha ([3]; post-emergence, Postemergence)
20%: pest or weed control at 16 g/ha ([3]; post-emergence, Postemergence) | pest or weed control at 16 g/ha ([5]; pre-emergence, Preemergence) | pest or weed control at 31 g/ha ([6]; post-emergence, Postemergence)
35%: pest or weed control at 31 g/ha ([3]; post-emergence, Postemergence) | pest or weed control at 31 g/ha ([6]; pre-emergence, Preemergence) | pest or weed control at 62 g/ha ([6]; pre-emergence, Preemergence) | pest or weed control at 62 g/ha ([7]; pre-emergence, Preemergence)
25%: plant injury at 62 g/ha ([2]; 62 g ai/ha) | plant injury at 125 g/ha ([4]; 125 g ai/ha, scale 0 to 100 (0 no effect, 100 complete control), read-out: Plant response rating, Barley, Spring) | pest or weed control at 16 g/ha (kochia (Kochia scoparia); pre-emergence, Preemergence) | pest or weed control at 62 g/ha ([7]; post-emergence, Postemergence) | pest or weed control at 31 g/ha ([7]; pre-emergence, Preemergence)
65%: pest or weed control at 62 g/ha ([3]; pre-emergence, Preemergence) | pest or weed control at 31 g/ha (kochia (Kochia scoparia); pre-emergence, Preemergence) | pest or weed control at 16 g/ha ([8]; post-emergence, Postemergence) | pest or weed control at 16 g/ha ([10]; pre-emergence, Preemergence)
40%: plant injury at 125 g/ha ([2]; 125 g ai/ha) | pest or weed control at 62 g/ha ([6]; post-emergence, Postemergence)
30%: pest or weed control at 16 g/ha ([3]; pre-emergence, Preemergence)
10%: plant injury at 62 g/ha ([4]; 62 g ai/ha, scale 0 to 100, read-out: Plant response rating, Barley, Spring)
75%: pest or weed control at 16 g/ha (kochia (Kochia scoparia); post-emergence, Postemergence) | pest or weed control at 31 g/ha (kochia (Kochia scoparia); post-emergence, Postemergence) | pest or weed control at 125 g/ha ([7]; pre-emergence, Preemergence) | pest or weed control at 31 g/ha ([8]; post-emergence, Postemergence) | pest or weed control at 16 g/ha ([9]; post-emergence, Postemergence)
80%: pest or weed control at 62 g/ha (kochia (Kochia scoparia); post-emergence, Postemergence) | pest or weed control at 16 g/ha ([10]; post-emergence, Postemergence) | pest or weed control at 31 g/ha ([10]; post-emergence, Postemergence)
95%: pest or weed control at 31 g/ha ([1]; pre-emergence, Preemergence) | pest or weed control at 125 g/ha ([3]; pre-emergence, Preemergence) | pest or weed control at 62 g/ha ([5]; pre-emergence, Preemergence) | pest or weed control at 125 g/ha ([5]; pre-emergence, Preemergence) | pest or weed control at 125 g/ha ([8]; post-emergence, Postemergence) | pest or weed control at 31 g/ha ([8]; pre-emergence, Preemergence)
0%: pest or weed control at 16 g/ha ([6]; pre-emergence, Preemergence) | pest or weed control at 16 g/ha ([7]; post-emergence, Postemergence) | pest or weed control at 16 g/ha ([7]; pre-emergence, Preemergence)
60%: pest or weed control at 125 g/ha ([3]; post-emergence, Postemergence) | pest or weed control at 31 g/ha ([3]; pre-emergence, Preemergence) | pest or weed control at 31 g/ha ([5]; pre-emergence, Preemergence) | pest or weed control at 125 g/ha ([6]; post-emergence, Postemergence) | pest or weed control at 125 g/ha ([7]; post-emergence, Postemergence)
85%: pest or weed control at 16 g/ha ([1]; post-emergence, Postemergence) | pest or weed control at 31 g/ha ([5]; post-emergence, Postemergence) | pest or weed control at 62 g/ha ([5]; post-emergence, Postemergence) | pest or weed control at 62 g/ha ([8]; post-emergence, Postemergence) | pest or weed control at 62 g/ha ([10]; post-emergence, Postemergence) | pest or weed control at 31 g/ha ([10]; pre-emergence, Preemergence)
70%: pest or weed control at 125 g/ha ([6]; pre-emergence, Preemergence)

From patent US10131652B2, “Pyrimidinyloxy benzene derivatives as herbicides” (E. I. DU PONT DE NEMOURS AND COMPANY, priority 2014, dated 2018)
